In patent US9157904B2, “Wnt antagonists and methods of treatment and screening” (OncoMed Pharmaceuticals, Inc., priority 2010, dated 2015):

Legend:
Assay type in all cases: in vivo, NOD/SCID mice
[1] = tested on: PN4 pancreas tumor; assay: PN4 pancreas tumor xenograft, tumor growth; settings: FZD8-Fc 15 mg/kg i.p. twice weekly, vs control antibody
Experimental: The anti-tumor activity of FZD8-Fc (54F03) was evaluated in the PN4 pancreas tumor xenograft model. Dissociated OMP-PN4 cells (50,000 per animal) were injected subcutaneously into 6-8 week old male NOD/SCID mice. Tumor growth was monitored weekly and tumor measurements were initiated once tumors were palpable. On day 50, mice with average tumor volumes of 137 mm^3 were randomized into 4 groups of 10 animals each. Animals were injected with either control antibody, FZD8-Fc (15 mg/kg), gemcitabine (2 mg/kg) or a combination of FZD8-Fc and gemcitabine. Administration of the FZD8-Fc and gemcitabine was performed via injection into the intra-peritoneal cavity, once weekly (gemcitabine) or twice weekly (FZD8-Fc). Tumors were measured twice a week and tumor volume was determined using the formula ½(a×b^2); where a=length, and b=breadth. Data are expressed as mean and mean±S.E.M. Group means were compared using Student's two-tailed, unpaired t test.

[2] = tested on: PE13 breast tumor; assay: PE13 breast tumor xenograft, tumor growth; settings: FZD8-Fc 5 mg/kg i.p. twice a week, single agent
Experimental: Dissociated PE13 breast tumor cells (50,000 per animal) were injected subcutaneously into the mammary fat pads of NOD/SCID mice. Mice were monitored weekly and tumors were allowed to grow until they were approximately 106 mm^3. On day 27 post cell injection the mice were randomized into four treatment groups (n=10 mice/group) and treated with control antibody, FZD8-Fc (54F03), taxol or a combination of FZD8-Fc and taxol. Taxol was administered intraperitoneally at a dose of 7.5 mg/kg once a week and FZD8-Fc was administered intraperitoneally at a dose of 5 mg/kg twice a week.

[3] = tested on: PN13 tumors; assay: CK20 immunohistochemistry of treated PN13 tumors; settings: vs control antibody
Experimental: The cell differentiation capability of FZD8-Fc was also evaluated in the OMP-PN13 pancreas tumor xenograft model. Dissociated OMP-PN13 cells (50,000 per animal) were injected subcutaneously into 6-8 week old male NOD/SCID mice. Tumor growth was monitored weekly and tumor measurements were initiated once tumors were palpable. On day 40 mice with average tumor volume of 114 mm^3 were randomized into 4 groups of 10 animals each. Animals were injected with either control antibody or FZD8-Fc (15 mg/kg). Administration of the FZD8-Fc and control antibody was performed via injection into the intraperitoneal cavity, twice weekly. After 19 days of treatment, the tumors were excised and immunohistochemistry analysis was performed using standard techniques. Briefly, tumors were fixed in formalin, embedded in paraffin, and tumor sections of 4 μm thickness were cut. After deparaffinization and hydration, the tumor sections were subjected to an antigen retrieval process in Tris buffer (pH 9.5). Sections were incubated with hydrogen peroxide (Sigma-Aldrich, St Louis, Mo.) for 10 minutes to block endogenous peroxidases. […]
Tumor sections were obtained and treated as described above. […] The bound antibody was detected using the immunohistochemistry protocol described above.

[4] = tested on: PN4 tumors; assay: FACS for ESA, CD44 and CD201 on PN4 tumors treated with variants; settings: vs control antibody
Experimental: Pancreatic tumor cells from the tumor-bearing mice described above were harvested and minced into approximately 1 mm^3 fragments, followed by enzymatic digestion at 1 gram per 10 ml of 300 μg/ml collagenase and 200 U/ml DNase I for 2 hours at 37° C./5% CO2 with intermittent mixing with a 10 ml pipet to disperse cells. Digestion was stopped by adding an equal volume of FACS buffer (1× Hanks Buffered Saline Solution (HBSS), 2% heat-inactivated Fetal Calf Serum (FCS) and 2 mM HEPES pH 7.4). Cells were filtered through 40 μm nylon filters and collected by centrifugation at 150×g for 5 minutes. Red blood cells were lysed in a hypotonic buffer containing ammonium chloride for 2 minutes on ice, and the cells were washed again with excess FACS buffer, and resuspended with FACS buffer at 1×10^7 cells/ml.
The freshly prepared single cell suspensions were stained for 20 minutes on ice with biotinylated anti-mouse H-2Kd (clone SF1-1.1, Biolegend, San Diego, Calif.) at 5 μg/ml, biotinylated anti-mouse CD45 (30-F11, Biolegend) at […], and streptavidin-PerCP-Cy5.5 (eBioscience, San Diego, Calif.) at 1:200 dilution. Unbound antibody was removed by washing twice with 10 volume of FACS buffer. […]

[5] = tested on: PN4 tumors; assay: Alcian blue staining of treated PN4 tumors; settings: day 85, vs control antibody or gemcitabine
Experimental: Increased cell differentiation of PN4 and PN8 tumors with FZD8-Fc treatment. Control and treated tumors from the OMP-PN4 xenograft study described above (Example 3) were harvested at the end of the study (day 85). Tumors were fixed in formalin, embedded in paraffin, and tumor sections of 4 μm thickness were cut. After deparaffinization and hydration, the sections were treated with aqueous acetic acid for 5 minutes at room temperature. The sections were then treated with 1% alcian blue in 3% aqueous acetic acid for 30 minutes and washed with water. Sections were counter-stained in neutral fast red, dehydrated and mounted. Using this method, sialomucins in the tissue samples stain blue and the background appears as pink or red.

Question: With “54F03: Fri domain of human FZD8 fused to human IgG1 Fc with GRA linker; SEQ ID NO:1” as the substance, how does the “reduction in tumor growth” value [1] read?
Answer: 66%

Question: What about the “reduction of tumor growth relative to control antibody” value [2] of the same substance?
Answer: 20%

Question: What about the “cells expressing CK20” value [3] of the same substance?
Answer: increase in cells expressing CK20

Question: What about the “percentage of CD44^hi cells” value [4] of the same substance?
Answer: decreased the percentage of CD44^hi cells

Question: What about the “percentage of CD201^+CD44^+ cells” value [4] of the same substance?
Answer: decreased the percentage of CD201^+CD44^+ cells

Question: And the “cells expressing sialomucins (alcian blue)” value [5]?
Answer: increase in cells expressing sialomucins
